Common to all, as to format: cell-based
The test system of experiment [1] is TNFα-FL/Gaussia Luciferase. The experiment is described as follows: Dox induced TNFα-FL-Gluc assay. As to conditions: Flp-In 293 T-REx cells, doxycycline, 24 hours; read-out: TNFa FL Gluc IC50. In a few lines: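 Stable Flp-In 293 T-REx line expressing full-length TNFα (aa 1-233) fused at its C-terminus to Gaussia luciferase under doxycycline-inducible control. Cells plated the day before, then given compound dilutions in DMSO/media containing doxycycline and incubated at 37 °C, 5% CO2.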

The subject of experiment [2] is NCI-H929 multiple myeloma cell line. Briefly: H929 assay (cell viability, Celltiter-Glo). As to conditions: Homo sapiens, NCI-H929; 48 hours, cell viability; read-out: H929 EC50. Summed up:
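Cells plated in RPMI 1640 with 10% FBS and 2 mM glutamine, treated with compound dilutions in DMSO/media. Incubation 48 h at 37° C, 5% CO2. Viability from luciferase luminescence signal.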

Experiment [3] deals with BT474 breast tumor cell line. Briefly: BT474 assay (Alamar blue). The note with it: Homo sapiens, BT-474, 72 h. In a few lines: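 For both lines, 5000 cells/well were exposed to compound or a 1% DMSO-medium control for 72 h unless otherwise specified. Signal was normalized to the DMSO control.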
The test system of experiment [4] is IL7Rss-Gluc. Briefly: IL7Rss assay. The protocol:
The mature domain of secreted luciferase from Gaussia princeps (GLuc) was cloned into pcDNA5/FRT/TO. The signal sequence plus four amino acids of the mature domain from IL7R ([…]) (SEQ ID NO:6) were cloned upstream of GLuc mature domain and used in transient transfection experiment. HEK-293T T-rex cells were cultured in Dulbecco's modified Eagle's medium with 10% FBS at 5% CO2. Cells were plated 1×10e6 cells per well in a 6-well plate and incubated for 6 h. Cells were transiently transfected with IL7Rss-Gluc using Lipofectamine 2000 (Invitrogen). After overnight incubation, transfected cells were replated in a clear-bottomed, black 96-well plate at a density of 20,000 cells per well. Six hours after plating, the cells were treated with doxycycline (1 μg/ml) and increasing concentrations of the indicated compounds for 24 h. Secreted luciferase in the conditioned media was quantified by luminescence using the BioLux Gaussia Luciferase Assay Kit (New England Biolabs, Ipswich, Mass., USA) and a SpectraMax M5 plate reader (Molecular Devices).

The test system of experiment [5] is FLT3ss-Gluc. The experiment is described as follows: FLT3ss assay. On the procedure:
The mature domain of secreted luciferase from Gaussia princeps (GLuc) was cloned into pcDNA5/FRT/TO. The signal sequence plus four amino acids of the mature domain from FLT3 ([…]) (SEQ ID NO:7) were cloned upstream of GLuc mature domain and used in transient transfection experiment.
HEK-293T T-rex cells were cultured in Dulbecco's modified Eagle's medium with 10% FBS at 5% CO2. Cells were plated 1×10e6 cells per well in a 6-well plate and incubated for 6 h. Cells were transiently transfected with FLT3ss-Gluc using Lipofectamine 2000 (Invitrogen). After overnight incubation, transfected cells were replated in a clear-bottomed, black 96-well plate at a density of 20,000 cells per well. Six hours after plating, the cells were treated with doxycycline (1 μg/ml) and increasing concentrations of the indicated compounds for 24 h. Secreted luciferase in the conditioned media was quantified by luminescence using the BioLux Gaussia Luciferase Assay Kit (New England Biolabs, Ipswich, Mass., USA) and a SpectraMax M5 plate reader (Molecular Devices).

Read-outs that look alike come from different tables or passages of the source. Peptide text beside a SMILES is read from it.

This is an account of results in patent US11339193B2, “CDP protein secretion inhibitors” (KEZAR LIFE SCIENCES, priority 2018, dated 2022).

On to `C#CC[C@H]1OC(=O)[C@H](C)N(C)C(C)[C@H](C[C@H](C)CCCC)NC(=O)[C@H](Cc2ccccc2)N(C)C(=O)[C@H](CC(C)C)NC(=O)[C@H](CC(C)C)N(C)C(=O)[C@H](C[C@H](C)CCCC)NC1=O` (stereo partly shown) [C-01], for which the IC50 in experiment [1] came to 79 nM; in experiment [4] (read-out: IL7Rss IC50; HEK-293T T-rex cells, transient transfection, doxycycline, 24 h), 23 nM; in experiment [5] (read-out: FLT3ss IC50; HEK-293T T-rex cells, transient transfection, doxycycline, 24 h) it was 52 nM. Moreover, the EC50 was 454 nM in experiment [2] and 730 nM in experiment [3].
In the case of `CC(C)C[C@@H]1NC(=O)[C@H](Cc2cn(Cc3ccccc3)c3ccccc23)N(C)C(=O)[C@H](CC(C)C)NC(=O)[C@H](CC(C)C)N(C)C(=O)[C@H](CC(C)C)NC(=O)[C@@H](CCC#N)OC(=O)[C@H](C)N(C)C1=O` [C-16] (HELM PEPTIDE1{L.[meA].[N#CCC[C@@H](O[*:1])C(=O)[*:2]].L.[meL].L.[CN([C@@H](Cc1cn(Cc2ccccc2)c2ccccc12)C(=O)[*:2])[*:1]]}$PEPTIDE1,PEPTIDE1,1:R1-7:R2$$$V2.0), the IC50 in experiment [1] came out at 92 nM; in experiment [4] (HEK-293T T-rex cells, transient transfection, doxycycline, 24 h; read-out: IL7Rss IC50) it was 10 nM; in experiment [5] (HEK-293T T-rex cells, transient transfection, doxycycline, 24 h; read-out: FLT3ss IC50) it was 32 nM. The figures for the EC50 in experiment [2] and in experiment [3] were 941 nM and 745 nM, respectively.
